PMC5814754, “Quantitative, Wide-Spectrum Kinase Profiling in Live Cells for Assessing the Effect of Cellular ATP on Target Engagement” (Cell Chemical Biology, 2018)
Each block holds one compound with its values, some of them ahead of it.

Assays:
Assay in all cases: Apparent affinity (EC50) of energy transfer probes by titration onto live HEK293 cells expressing kinase/Nluc fusions (Table S1)
Type in all cases: binding
[1] = biological target: full-length kinase/Nluc fusion proteins (Homo sapiens, UniProt P42681); conditions: TXK (NP_003319), Nluc orientation C; read-out: Probe EC50
[2] = biological target: full-length kinase/Nluc fusion proteins (Homo sapiens, UniProt P42684); conditions: ABL2, Nluc N; read-out: Probe EC50
[3] = biological target: full-length kinase/Nluc fusion proteins (Homo sapiens, UniProt O14976); conditions: GAK, Nluc N; read-out: Probe EC50
[4] = biological target: full-length kinase/Nluc fusion proteins (Homo sapiens, UniProt P54756); conditions: EPHA5, Nluc C; read-out: Probe EC50
[5] = biological target: full-length kinase/Nluc fusion proteins (Homo sapiens, UniProt Q07912); conditions: TNK2 (NP_001010938), Nluc orientation C; read-out: Probe EC50
[6] = biological target: full-length kinase/Nluc fusion proteins (Homo sapiens, UniProt P29323); conditions: EPHB2, Nluc C; read-out: Probe EC50
[7] = biological target: full-length kinase/Nluc fusion proteins (Homo sapiens, UniProt P08631); conditions: HCK, Nluc C; read-out: Probe EC50
[8] = biological target: full-length kinase/Nluc fusion proteins (Homo sapiens, UniProt P12931); conditions: SRC (NP_005408), Nluc orientation C; read-out: Probe EC50
full-length kinase/Nluc fusion proteins (Homo sapiens, UniProt P12931), sequence (P12931 whole entry, the tested form may be a part): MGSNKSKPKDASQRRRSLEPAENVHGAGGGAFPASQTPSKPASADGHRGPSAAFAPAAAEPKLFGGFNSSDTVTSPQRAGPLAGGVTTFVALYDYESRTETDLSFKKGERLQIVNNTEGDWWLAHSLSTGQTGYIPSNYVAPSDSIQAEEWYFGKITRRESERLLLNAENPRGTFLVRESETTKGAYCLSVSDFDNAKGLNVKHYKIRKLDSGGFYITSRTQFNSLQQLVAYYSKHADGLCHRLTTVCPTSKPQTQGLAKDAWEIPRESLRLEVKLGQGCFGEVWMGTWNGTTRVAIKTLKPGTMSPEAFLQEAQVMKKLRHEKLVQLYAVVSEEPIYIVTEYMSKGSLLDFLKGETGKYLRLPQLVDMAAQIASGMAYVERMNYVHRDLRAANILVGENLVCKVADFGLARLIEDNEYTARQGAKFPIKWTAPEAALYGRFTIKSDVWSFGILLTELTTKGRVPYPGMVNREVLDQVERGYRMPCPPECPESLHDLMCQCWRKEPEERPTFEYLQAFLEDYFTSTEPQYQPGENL

[9] = biological target: full-length kinase/Nluc fusion proteins (Homo sapiens, UniProt Q9NRM7); conditions: LATS2, Nluc C; read-out: Probe EC50
full-length kinase/Nluc fusion proteins (Homo sapiens, UniProt Q9NRM7), sequence (Q9NRM7 whole entry, the tested form may be a part): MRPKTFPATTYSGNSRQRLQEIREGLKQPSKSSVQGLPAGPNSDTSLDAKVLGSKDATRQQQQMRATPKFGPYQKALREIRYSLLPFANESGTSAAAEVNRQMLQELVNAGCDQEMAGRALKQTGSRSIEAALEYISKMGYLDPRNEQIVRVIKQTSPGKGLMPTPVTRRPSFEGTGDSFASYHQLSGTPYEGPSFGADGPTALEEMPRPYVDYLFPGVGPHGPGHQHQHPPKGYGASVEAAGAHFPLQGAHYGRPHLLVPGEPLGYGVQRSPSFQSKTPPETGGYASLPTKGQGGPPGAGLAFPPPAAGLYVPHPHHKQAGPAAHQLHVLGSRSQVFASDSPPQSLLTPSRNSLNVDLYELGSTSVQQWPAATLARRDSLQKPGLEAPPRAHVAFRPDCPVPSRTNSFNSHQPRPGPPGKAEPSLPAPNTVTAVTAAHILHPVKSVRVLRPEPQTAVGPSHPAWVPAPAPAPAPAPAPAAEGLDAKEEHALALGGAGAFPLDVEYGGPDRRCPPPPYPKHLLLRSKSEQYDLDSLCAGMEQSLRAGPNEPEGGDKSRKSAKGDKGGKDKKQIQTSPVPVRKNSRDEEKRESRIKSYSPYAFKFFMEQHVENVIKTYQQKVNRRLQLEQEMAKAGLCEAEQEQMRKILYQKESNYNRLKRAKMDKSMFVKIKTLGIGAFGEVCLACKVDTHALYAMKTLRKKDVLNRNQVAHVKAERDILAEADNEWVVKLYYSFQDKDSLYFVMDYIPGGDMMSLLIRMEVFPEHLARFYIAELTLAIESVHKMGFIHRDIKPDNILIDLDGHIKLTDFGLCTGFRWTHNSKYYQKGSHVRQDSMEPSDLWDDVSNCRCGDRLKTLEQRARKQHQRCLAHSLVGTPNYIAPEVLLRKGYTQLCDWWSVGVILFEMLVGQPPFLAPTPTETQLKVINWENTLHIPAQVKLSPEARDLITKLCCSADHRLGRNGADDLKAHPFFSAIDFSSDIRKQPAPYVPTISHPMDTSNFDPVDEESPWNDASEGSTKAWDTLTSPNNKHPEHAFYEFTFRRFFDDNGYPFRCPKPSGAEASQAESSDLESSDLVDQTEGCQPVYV

[10] = biological target: full-length kinase/Nluc fusion proteins (Homo sapiens, UniProt P49760); conditions: CLK2, Nluc C; read-out: Probe EC50
[11] = biological target: full-length kinase/Nluc fusion proteins (Homo sapiens, UniProt Q14164); conditions: IKBKE, Nluc N; read-out: Probe EC50
[12] = biological target: full-length kinase/Nluc fusion proteins (Homo sapiens, UniProt P49759); conditions: CLK1, Nluc N; read-out: Probe EC50
[13] = biological target: full-length kinase/Nluc fusion proteins (Homo sapiens, UniProt O15146); conditions: MUSK, Nluc C; read-out: Probe EC50
full-length kinase/Nluc fusion proteins (Homo sapiens, UniProt O15146), sequence (O15146 24-869): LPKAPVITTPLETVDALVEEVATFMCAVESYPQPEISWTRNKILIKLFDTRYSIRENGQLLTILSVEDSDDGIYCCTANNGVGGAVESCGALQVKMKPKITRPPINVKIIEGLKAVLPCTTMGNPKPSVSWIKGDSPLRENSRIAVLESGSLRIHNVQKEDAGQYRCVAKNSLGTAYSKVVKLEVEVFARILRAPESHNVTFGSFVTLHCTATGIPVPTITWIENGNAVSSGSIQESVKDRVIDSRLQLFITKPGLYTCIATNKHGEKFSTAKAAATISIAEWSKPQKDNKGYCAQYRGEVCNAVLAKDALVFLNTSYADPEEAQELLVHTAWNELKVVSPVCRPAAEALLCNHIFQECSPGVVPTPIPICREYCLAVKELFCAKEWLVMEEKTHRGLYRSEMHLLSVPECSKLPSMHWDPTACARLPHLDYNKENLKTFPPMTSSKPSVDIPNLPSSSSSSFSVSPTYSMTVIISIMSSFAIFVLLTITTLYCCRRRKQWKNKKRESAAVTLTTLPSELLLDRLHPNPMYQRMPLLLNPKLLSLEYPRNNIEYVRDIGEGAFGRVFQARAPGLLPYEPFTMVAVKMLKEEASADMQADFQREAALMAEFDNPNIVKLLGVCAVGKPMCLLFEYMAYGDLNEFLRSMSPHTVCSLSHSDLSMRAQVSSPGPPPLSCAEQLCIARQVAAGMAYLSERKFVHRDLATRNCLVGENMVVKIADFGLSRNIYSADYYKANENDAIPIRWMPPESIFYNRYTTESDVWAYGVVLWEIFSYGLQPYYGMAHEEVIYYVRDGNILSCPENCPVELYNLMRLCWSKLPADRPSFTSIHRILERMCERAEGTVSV

[14] = biological target: full-length kinase/Nluc fusion proteins (Homo sapiens, UniProt Q9Y616); conditions: IRAK3, Nluc N; read-out: Probe EC50
full-length kinase/Nluc fusion proteins (Homo sapiens, UniProt Q9Y616), sequence (Q9Y616 whole entry, the tested form may be a part): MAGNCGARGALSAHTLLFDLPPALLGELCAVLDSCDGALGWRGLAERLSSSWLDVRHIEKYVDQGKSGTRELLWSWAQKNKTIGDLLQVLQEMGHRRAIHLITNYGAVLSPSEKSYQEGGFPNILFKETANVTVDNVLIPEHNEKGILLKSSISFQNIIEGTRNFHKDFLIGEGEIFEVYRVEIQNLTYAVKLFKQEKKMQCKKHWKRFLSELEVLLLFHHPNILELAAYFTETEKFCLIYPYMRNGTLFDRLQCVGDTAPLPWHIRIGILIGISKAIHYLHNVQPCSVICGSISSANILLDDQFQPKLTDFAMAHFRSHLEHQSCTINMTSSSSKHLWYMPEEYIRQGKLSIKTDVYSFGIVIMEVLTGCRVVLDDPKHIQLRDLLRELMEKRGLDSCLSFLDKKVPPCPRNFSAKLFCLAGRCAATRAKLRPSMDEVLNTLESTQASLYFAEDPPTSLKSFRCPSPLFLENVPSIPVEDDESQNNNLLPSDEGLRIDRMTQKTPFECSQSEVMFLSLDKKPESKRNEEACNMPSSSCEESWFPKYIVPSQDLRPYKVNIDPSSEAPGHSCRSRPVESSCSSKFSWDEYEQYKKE

[15] = biological target: full-length kinase/Nluc fusion proteins (Homo sapiens, UniProt P22455); conditions: FGFR4, Nluc C; read-out: Probe EC50
[16] = biological target: full-length kinase/Nluc fusion proteins (Homo sapiens, UniProt Q9UM73); conditions: ALK, Nluc C; read-out: Probe EC50
[17] = biological target: full-length kinase/Nluc fusion proteins (Homo sapiens, UniProt P04629); conditions: NTRK1, Nluc C; read-out: Probe EC50
[18] = biological target: full-length kinase/Nluc fusion proteins (Homo sapiens, UniProt Q14680); conditions: MELK, Nluc N; read-out: Probe EC50
[19] = biological target: full-length kinase/Nluc fusion proteins (Homo sapiens, UniProt Q12866); conditions: MERTK, Nluc C; read-out: Probe EC50
[20] = biological target: full-length kinase/Nluc fusion proteins (Homo sapiens, UniProt Q15418); conditions: RPS6KA1 (NP_002944), Nluc orientation N; read-out: Probe EC50
[21] = biological target: full-length kinase/Nluc fusion proteins (Homo sapiens, UniProt Q8NG66); conditions: NEK11, Nluc N; read-out: Probe EC50
[22] = biological target: full-length kinase/Nluc fusion proteins (Homo sapiens, UniProt P52333); conditions: JAK3, Nluc C; read-out: Probe EC50
[23] = biological target: full-length kinase/Nluc fusion proteins (Homo sapiens, UniProt P31751); conditions: AKT2, Nluc C; read-out: Probe EC50
[24] = biological target: full-length kinase/Nluc fusion proteins (Homo sapiens, UniProt Q12851); conditions: MAP4K2, Nluc N; read-out: Probe EC50
full-length kinase/Nluc fusion proteins (Homo sapiens, UniProt Q12851), sequence (Q12851 whole entry, the tested form may be a part): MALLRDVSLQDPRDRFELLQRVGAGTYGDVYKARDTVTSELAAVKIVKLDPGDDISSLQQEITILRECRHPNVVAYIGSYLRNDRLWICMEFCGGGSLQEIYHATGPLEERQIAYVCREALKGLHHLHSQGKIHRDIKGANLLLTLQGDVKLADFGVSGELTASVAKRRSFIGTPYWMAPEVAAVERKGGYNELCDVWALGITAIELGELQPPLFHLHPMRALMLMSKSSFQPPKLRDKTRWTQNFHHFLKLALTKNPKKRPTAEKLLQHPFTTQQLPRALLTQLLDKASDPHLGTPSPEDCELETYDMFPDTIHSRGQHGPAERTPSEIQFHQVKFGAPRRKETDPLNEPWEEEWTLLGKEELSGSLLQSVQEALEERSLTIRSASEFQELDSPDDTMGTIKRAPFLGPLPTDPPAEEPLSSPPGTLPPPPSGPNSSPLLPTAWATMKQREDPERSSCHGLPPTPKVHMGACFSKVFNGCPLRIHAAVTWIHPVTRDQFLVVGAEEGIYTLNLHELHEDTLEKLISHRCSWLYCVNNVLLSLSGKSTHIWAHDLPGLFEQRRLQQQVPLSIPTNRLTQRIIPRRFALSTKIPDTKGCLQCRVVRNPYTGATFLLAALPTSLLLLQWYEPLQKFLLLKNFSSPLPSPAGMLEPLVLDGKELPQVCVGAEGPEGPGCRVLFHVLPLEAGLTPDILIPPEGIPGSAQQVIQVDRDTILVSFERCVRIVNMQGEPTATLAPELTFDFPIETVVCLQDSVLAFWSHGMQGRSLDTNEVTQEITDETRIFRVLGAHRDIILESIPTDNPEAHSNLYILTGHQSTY

[25] = biological target: full-length kinase/Nluc fusion proteins (Homo sapiens, UniProt P80192); conditions: MAP3K9, Nluc N; read-out: Probe EC50
[26] = biological target: full-length kinase/Nluc fusion proteins (Homo sapiens, UniProt O14936); conditions: CASK, Nluc N; read-out: Probe EC50
[27] = biological target: full-length kinase/Nluc fusion proteins (Homo sapiens, UniProt P78368); conditions: CSNK1G2, Nluc N; read-out: Probe EC50
[28] = biological target: full-length kinase/Nluc fusion proteins (Homo sapiens, UniProt P19784); conditions: CSNK2A2, Nluc C; read-out: Probe EC50
[29] = biological target: full-length kinase/Nluc fusion proteins (Homo sapiens, UniProt O95835); conditions: LATS1, Nluc C; read-out: Probe EC50
[30] = biological target: full-length kinase/Nluc fusion proteins (Homo sapiens, UniProt Q8TD19); conditions: NEK9, Nluc N; read-out: Probe EC50
full-length kinase/Nluc fusion proteins (Homo sapiens, UniProt Q8TD19), sequence (Q8TD19 whole entry, the tested form may be a part): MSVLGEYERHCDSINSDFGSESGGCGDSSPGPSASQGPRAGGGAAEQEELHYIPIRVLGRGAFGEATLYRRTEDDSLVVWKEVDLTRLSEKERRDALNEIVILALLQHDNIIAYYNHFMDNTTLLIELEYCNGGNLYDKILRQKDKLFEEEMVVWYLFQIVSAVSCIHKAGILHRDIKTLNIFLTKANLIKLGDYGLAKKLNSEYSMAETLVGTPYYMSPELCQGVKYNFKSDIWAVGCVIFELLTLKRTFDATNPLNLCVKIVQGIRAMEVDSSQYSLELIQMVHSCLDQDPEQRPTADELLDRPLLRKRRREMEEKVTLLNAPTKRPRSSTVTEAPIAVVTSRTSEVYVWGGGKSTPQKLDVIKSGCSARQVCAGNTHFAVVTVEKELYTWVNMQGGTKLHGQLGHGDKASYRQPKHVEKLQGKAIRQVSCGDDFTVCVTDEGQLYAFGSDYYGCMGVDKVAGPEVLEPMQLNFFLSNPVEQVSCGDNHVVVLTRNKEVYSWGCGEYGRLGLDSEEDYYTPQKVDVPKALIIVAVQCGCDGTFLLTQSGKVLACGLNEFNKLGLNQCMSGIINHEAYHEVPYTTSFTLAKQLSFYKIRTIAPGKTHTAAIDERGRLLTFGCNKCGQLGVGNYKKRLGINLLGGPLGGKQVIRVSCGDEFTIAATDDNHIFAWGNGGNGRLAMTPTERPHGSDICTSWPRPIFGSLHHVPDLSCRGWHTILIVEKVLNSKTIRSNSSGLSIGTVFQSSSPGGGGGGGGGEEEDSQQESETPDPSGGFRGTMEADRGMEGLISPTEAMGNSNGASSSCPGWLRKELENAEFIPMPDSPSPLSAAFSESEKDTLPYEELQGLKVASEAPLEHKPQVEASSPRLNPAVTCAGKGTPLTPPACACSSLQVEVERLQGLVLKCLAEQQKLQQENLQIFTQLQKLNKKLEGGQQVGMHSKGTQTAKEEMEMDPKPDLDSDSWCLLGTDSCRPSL

[31] = biological target: full-length kinase/Nluc fusion proteins (Homo sapiens, UniProt O75460); conditions: ERN1, Nluc C; read-out: Probe EC50
[32] = biological target: full-length kinase/Nluc fusion proteins (Homo sapiens, UniProt Q5S007); conditions: LRRK2, Nluc C; read-out: Probe EC50
[33] = biological target: full-length kinase/Nluc fusion proteins (Homo sapiens, UniProt P30530); conditions: AXL, Nluc C; read-out: Probe EC50

EC50 [1]: 100 nM
EC50 [2]: 10 nM
EC50 [3]: 500 nM
EC50 [4]: 30 nM
EC50 [5]: 100 nM
EC50 [6]: 20 nM
EC50 [7]: > 1000 nM
EC50 [8]: 300 nM
SMILES: Cc1nc(Nc2ncc(C(=O)Nc3c(C)cccc3Cl)s2)cc(N2CCN(CCOCCNC(=O)CCc3ccc4n3[B-](F)(F)[N+]3=C(c5ccc[nH]5)C=CC3=C4)CC2)n1 [Energy Transfer Probe 6, 2-((6-(4-(2-(2-aminoethoxy)ethyl)piperazin-1-yl)-2-methylpyrimidin-4-yl)amino)-N-(2-chloro-6-methylphenyl)thiazole-5-carboxamide-NanoBRET 590]

EC50 [9]: 300 nM
EC50 [10]: > 1000 nM
EC50 [11]: > 1000 nM
EC50 [12]: > 1000 nM
EC50 [13]: > 1000 nM
EC50 [14]: 60 nM
EC50 [15]: > 1000 nM
EC50 [16]: > 1000 nM
EC50 [17]: 400 nM
EC50 [18]: > 1000 nM
EC50 [19]: 300 nM
EC50 [20]: 200 nM
EC50 [21]: > 1000 nM
EC50 [22]: > 1000 nM
EC50 [23]: > 1000 nM
EC50 [24]: > 1000 nM
EC50 [25]: > 1000 nM
EC50 [26]: > 1000 nM
EC50 [27]: > 1000 nM
EC50 [28]: > 1000 nM
EC50 [29]: 600 nM
EC50 [31]: > 1000 nM
EC50 [32]: > 1000 nM
EC50 [33]: 200 nM
SMILES: CNC(=O)c1ccccc1Nc1nc(Nc2ccc(N3CCN(C(=O)CCOCCOCCOCCOCCNC(=O)CCc4ccc5n4[B-](F)(F)[N+]4=C(c6ccc[nH]6)C=CC4=C5)CC3)cc2)ncc1Cl [Energy Transfer Probe 5, 2-((2-((4-(4-(1-amino-3,6,9,12-tetraoxapentadecan-15-oyl)piperazin-1-yl)phenyl)amino)-5-chloropyrimidin-4-yl)amino)-N-methylbenzamide-NanoBRET 590]
EC50 [30]: > 1000 nM
